This assay deals with Daudi cells (AID positive). Put plainly: Compound primary screening: cell death in AID positive Daudi cells (Cell-Titer Glo, Day 7). Format: cell-based. As to conditions: Homo sapiens, 168 h; Daudi cells, AID positive; cell death on Day 7, Cell-Titer Glo; read-out: Cellular activity in AID + (Daudi). As to the method:
Example 149. Compound Primary Screening
AID expressing cells are dependent upon RAD51 for survival; inhibiting RAD51 in AID positive cells results in a cytotoxic effect.
A 96 well u-bottom plate was prepared by writing the experiment number, plate number, date and initials in the top right corner of the plate lid. With a sterile 300 ml reservoir, and 25 ml serological pipette, evaporation buffer media was pipetted into reservoir in 25 ml increments. Using the liquid handler, 150 ul of evaporation buffer media was pipetted from reservoir into rows A and H, and Columns 1 and 12 of the 96 well u-bottom plate. Cell cultures were counted to obtain the density of cells per ml, and the culture viability. The cell density information was used to obtain 1,000,000 cells from culture using a 5 mL serological pipette into an epi tube. The cell density information from the culture was used to calculate the number of cells and volume of media needed for the assay to seed 1250 cells in 130 ul of media per available culture well in the 96 well u-bottom plate. Rows B through F were used for cells (50 wells in total), with row G left for an empty media control. The calculation was overestimated by 10 mL to account for the dead volume in the 300 ml reservoir. Once the media volume was calculated, the appropriate volume of media was pipetted in 25 mL increments into the 250 mL bottle using a 25 mL serological pipette. The 250 ml bottle was capped tightly, and placed into a 37° C. water bath for 2 minutes. While the culture media was warming, 10 mL of fresh media was pipetted from the 500 mL culture media bottle into a sterile 25 mL reservoir. Using the Eppendorf multichannel pipette, 130 ul of media was pipetted from the 25 mL reservoir into row G of the 96 well u-bottom plate. Once the 250 mL bottle of media was warmed, the volume of culture needed was pipetted into the bottle, and mixed gently with a 25 mL serological pipette as to not create bubbles, and then the contents of the bottle were pipetted into a new 300 mL reservoir. Using the liquid handler, 130 ul of culture was pipetted from the 300 mL reservoir into rows B through F of the 96 well u-bottom plate. Once the culture was added, the plate was placed into a 37° C. incubator until the compound master plate was prepared for use.
Two 96 well u-bottom plates were prepared by writing the master plate name in the upper right corner of the plate lid. Labeling one DMSO master and the other Media Master. The compounds of interest were obtained from the laboratory freezer, and placed into a 25 well storage box with a lid, and set the box aside. The compounds were vortexed after thawing but before use. Using an automatic multichannel pipette, 20 ul of 100% DMSO was pipetted into wells B3-B11 through G3-G11 of the DMSO master plate. For each compound on the master plate, 50 ul of the compound were pipetted in the appropriate well of row 2 (reference plate map to determine appropriate well). A serial dilution was prepared beginning by aspirating 20 ul from row 2 and mixing with row 3, repeating until row 11 was reached. Using the liquid handler, 194 ul of Daudi media was dispensed into wells B2-B11 through G2-G11 of the Media master plate. Using the liquid handler, 6 ul from the DMSO master plate was aspirated and dispensed into the media master plate, mixing 100 ul twice.
Compounds from master plate were then added to the culture plate. The culture plates were removed from the incubator, and set inside the biosafety cabinet. Using a liquid handler, 20 ul from wells B2 to B11 through G2 to G11 of master plate were aspirated, and dispensed into wells B2 to B11 through G2 to G11 of culture plate. This set was continued with each culture plate. Once the culture plates acquired their 20 ul of compound dilutions, they were placed back into the incubator, until their reads on Day 7 of experiment.
Cell death was measured on Day 7 of the experiment using Cell-Titer Glo and a Promega Plate reader.

With `CCNS(=O)(=O)c1cc(C(=O)NC(C)C)ccc1-c1cnc([C@H]2CC[C@H](NC(=O)OC(C)C)CC2)s1` [Compound 50, isopropyl (trans-4-(5-(2-(N-ethylsulfamoyl)-4-(isopropylcarbamoyl)phenyl)thiazol-2-yl)cyclohexyl)carbamate], the EC50 was in the range of 0.1 to 1 µM.
Next, `CCNS(=O)(=O)c1cc(COCC(C)C)ccc1-c1cnc([C@H]2CC[C@H](NC(=O)OC(C)C)CC2)s1` [Compound 51, isopropyl (trans-4-(5-(2-(N-ethylsulfamoyl)-4-(isobutoxymethyl)phenyl)thiazol-2-yl)cyclohexyl)carbamate]: 0.1 to 1 µM.
The same measure for `CCNS(=O)(=O)c1cc(COCC(C)C)ccc1-c1cnc([C@H]2CC[C@H](NC(=O)OC3COC3)CC2)s1` [Compound 52, oxetan-3-yl trans-N-[4-[5-[2-(ethylsulfamoyl)-4-(isobutoxy-methyl)phenyl]thiazol-2-yl]cyclohexyl]carbamate]: 0.1 to 1 µM; for `CC(C)OC(=O)N[C@H]1CC[C@H](c2ncc(-c3ccc(C#N)cc3S(=O)(=O)N3CCC3)s2)CC1` [Compound 54, isopropyl trans-N-[4-[5-[2-(azetidin-1-ylsulfonyl)-4-cyano-phenyl]thiazol-2-yl]cyclohexyl]carbamate]: 1 to 10 µM.
Next, `CCNS(=O)(=O)c1cc(Nc2ncc[nH]2)ccc1-c1cnc([C@H]2CC[C@H](NC(=O)OC(C)C)CC2)s1` [Compound 56, isopropyl trans-N-[4-[5-[2-(ethylsulfamoyl)-4-(1H-imidazol-2-ylamino)phenyl]thiazol-2-yl]cyclohexyl]carbamate]: under 0.1 µM; `CCNS(=O)(=O)c1cc(CC(=O)NC(C)C)ccc1-c1cnc([C@H]2CC[C@H](NC(=O)OC(C)C)CC2)s1` [Compound 58, isopropyl trans-N-[4-[5-[2-(ethylsulfamoyl)-4-[2-(isopropylamino)-2-oxo-ethyl]phenyl]thiazol-2-yl]cyclohexyl]carbamate]: 0.1 to 1 µM.
On to `CCNS(=O)(=O)c1cc(CC(=O)NC(C)C)ccc1-c1cnc([C@H]2CC[C@H](NC(=O)OC3COC3)CC2)s1` [Compound 59, oxetan-3-yl (trans-4-(5-(2-(N-ethylsulfamoyl)-4-(2-(isopropylamino)-2-oxoethyl)phenyl)thiazol-2-yl)cyclohexyl)carbamate], for which the EC50 lay within 0.1 to 1 µM.
Next, `CCNS(=O)(=O)c1cc(Nc2ncco2)ccc1-c1cnc([C@H]2CC[C@H](NC(=O)OC(C)C)CC2)s1` [Compound 60, isopropyl (trans-4-(5-(2-(N-ethylsulfamoyl)-4-(oxazol-2-ylamino)phenyl)thiazol-2-yl)cyclohexyl)carbamate]: under 0.1 µM.
Next, `CCNS(=O)(=O)c1cc(C(=O)O)ccc1-c1cnc([C@H]2CC[C@H](NC(=O)OC3COC3)CC2)s1` [Compound 66, trans-3-(ethylsulfamoyl)-4-[2-[4-(oxetan-3-yloxy-carbonylamino)cyclohexyl]thiazol-5-yl]benzoic acid]: 1 to 10 µM; `CCNS(=O)(=O)c1cc(C(N)=O)ccc1-c1cnc([C@H]2CC[C@H](NC(=O)OC3COC3)CC2)s1` [Compound 67, oxetan-3-yl trans-N-[4-[5-[4-carbamoyl-2-(ethylsulfamoyl)phenyl]thiazol-2-yl]cyclohexyl]carbamate]: 1 to 10 µM; `CCNS(=O)(=O)c1cc(C(=O)NC(C)C)ccc1-c1cnc([C@H]2CC[C@H](NC(=O)OC3COC3)CC2)s1` [Compound 68, oxetan-3-yl (trans-4-(5-(2-(N-ethylsulfamoyl)-4-(isopropylcarbamoyl)phenyl)thiazol-2-yl)cyclohexyl)carbamate]: 0.1 to 1 µM.
The same measure for `CCNS(=O)(=O)c1cc(NC2(C(C)C)COC2)ccc1-c1cnc([C@H]2CC[C@H](NC(=O)OC(C)C)CC2)s1` [Compound 69, isopropyl trans-N-[4-[5-[2-(ethylsulfamoyl)-4-[(3-isopropyloxetan-3-yl)amino]phenyl]thiazol-2-yl]cyclohexyl]carbamate]: under 0.1 µM.
